Test results: US10053485B2, “Cytotoxic agents that preferentially target leukemia inhibitory factor (LIF) for the treatment of malignancies and as new contraceptive agents” (Evestra, Inc., priority 2015, dated 2018)
Like-named read-outs stand apart in the source and are kept apart here.

Tests used:
MDA-MB-231 (TNBC cells) = assay: Short term (72 h) cytotoxicity assay; assay type: cell-based; conditions: Homo sapiens; MDA-MB-231, 72 h cytotoxicity
U87-MU (Glioma cells) = assay: Short term (72 h) cytotoxicity assay; assay type: cell-based
U251 (Glioma) = assay: Short term (72 h) cytotoxicity assay; assay type: cell-based, human; conditions: U251, 72 h cytotoxicity
A549 (Lung cancer) = assay: Short term (72 h) cytotoxicity assay; assay type: cell-based, human; conditions: A549, 72 h cytotoxicity
[1] = tested on: T47D (ER+ PR+ Breast Cancer); assay: Short term (72 h) cytotoxicity assay; assay type: cell-based; conditions: Homo sapiens
[2] = tested on: MCF-7 (ER+ Breast Cancer); assay: Short term (72 h) cytotoxicity assay; assay type: cell-based; conditions: Homo sapiens, MCF7; MCF-7, 72 h cytotoxicity
[3] = tested on: PC3 (AR− Prostate Cancer); assay: Short term (72 h) cytotoxicity assay; assay type: cell-based; conditions: Homo sapiens, PC3, 72 h cytotoxicity
LNCaP (AR+ Prostate) = assay: Short term (72 h) cytotoxicity assay; assay type: cell-based
[4] = tested on: Ishikawa (Endometrial Cancer); assay: Short term (72 h) cytotoxicity assay; assay type: cell-based; conditions: Homo sapiens
[5] = tested on: various cancer cells lines; assay: Cytotoxicity assays in various cancer cell lines; assay type: cell-based; conditions: in words
Protocol: Briefly, 5×10^3 cells were seeded in 96-well plates and incubated with compounds (0.0001-10 μmol/L) or dimethyl sulfoxide (DMSO; 0.02% v/v) for 24, 48, and 72 hours at 37° C. and cell viability was measured using a Fluoroscan plate reader.

T47D breast cancer cells = assay: Soft agar colony formation assay; assay type: cell-based, human
Protocol: Colonies of cancer cells formed in soft agar in the presence and absence of the testing compounds is a standard assay to interpret in-vitro tumorigenic potential in the basal layer. Agar was prepared by mixing 1% DNA grade agar melted and cooled to 40° C. with an equal volume of (2×) Dulbecco's Modified Eagle's Medium (DMEM) to obtain 0.5% agar that was dispersed in a 6-well plate and allowed to solidify. A total of 0.6% agar was prepared in RPMI medium and mixed together with T47D cells (0.5×10^6 cells/mL) and immediately plated on the basal layer in the presence or absence of testing compounds. The cultures were incubated at 37° C. in a CO2 incubator for 2 weeks, and colonies were stained with 0.005% crystal violet and observed under a light microscope.

[6] = tested on: human umbilical vein endothelial cells (HUVEC); assay: Matrigel in vitro HUVECs tube formation assay (angiogenesis); assay type: cell-based; conditions: 1 μM concentration, all measured time points
Protocol: Matrigel in vitro HUVECs tube formation assay: The tube formation assay was performed using 12-well plate coated with 100 μL Matrigel basement membrane matrix (BD Bioscience) per well and polymerized at 37° C. for 30 min. Human umbilical vascular endothelial cells (HUVECs) suspended in M199 medium containing 2% FBS were plated on the Matrigel at a density of 2×10^5 cells/well. […] After 8 h, the Matrigel-induced morphological changes were photographed and the extent of capillary tube formation was evaluated by measuring the total tube length per field.

[7] = tested on: human endometrial stromal cells (HESC); assay: Decidualization assay, actin cytoskeleton by phalloidin staining; assay type: cell-based; conditions: FIG. 3
Protocol: Decidualization studies: The above compounds were investigated originally for the treatment of endometriosis. The compounds were tested in a decidualization assay using human endometrial stromal fibroblast (HESC) cells. In preparation for the possibility of embryonic attachment, the stromal cells in the endometrium undergo extensive waves of proliferation, remodeling, and terminal differentiation that transforms the endometrium into an endocrine gland, called decidua. This transformation is called decidualization and it is under the control by ovarian hormones.
The level of apoptosis increases from the proliferative phase through menstrual cycle and peaks at menses. […] However if the cells are subjected to conditions that induce decidualization, stromal cells will begin to differentiate instead of undergoing apoptosis.
Briefly, human stromal endometrial cells were plated in the presence and absence of progesterone and allow undergoing decidualization. The cells treated with test compounds of different concentrations and stained for actin cytocketal morphology using phalloidin staining and monitored under fluorescent microscope.

[8] = tested on: MDM2 / P53 in MCF-7 cells; assay: P53 / MDM2 levels in MCF-7 cells (FIG. 5); assay type: cell-based, human
[9] = tested on: Patient derived tumor (melanoma): p53, LIF, MDM2, pSTAT3, Ki67; assay: Immunohistochemistry analysis of patient derived tumor; assay type: cell-based, human; conditions: 10 nM and 1 uM for 5 days, FIG. 10
Protocol: Patient derived tumor (melanoma) was treated with the compounds at 10 nM and 1 uM for 5 days in RPMI medium and harvested on day 6 using established protocol and immunohistochemistry was performed for different antibodies including p53, LIF, MDM2, pSTAT3, Ki67.

[10] = tested on: unmodified MCF-7 human breast cancer cells; assay: LIF specificity assay, unmodified cells; assay type: cell-based
[11] = tested on: LIF-overexpressing MCF-7 (MCF-7 LIF) human breast cancer cells; assay: LIF specificity assay, LIF-overexpressing cells; assay type: cell-based
[12] = tested on: IGROV-1 (Ovarian cancer cells); assay: Short term (72 h) cytotoxicity assay; assay type: cell-based; conditions: Homo sapiens; IGROV-1, 72 h cytotoxicity
[13] = Homo sapiens, MCF7, cytotoxicity
[14] = Homo sapiens, MCF7, cytotoxicity, LIF-overexpressing MCF-7, read-out: MCF-7 LIF IC50

Compound | IC50 (MDA-MB-231 (TNBC cells)) | IC50 (U87-MU (Glioma cells); Glioma cell) | IC50 (U251 (Glioma); Homo sapiens, U-251) | IC50 [10, 13] | IC50 [11, 14] | IC50 [12] | other results
C#CC(F)(F)[C@]1(O)CCC2C3CCC4=CC(=O)CCC4=C3C(c3ccc(C(C)=O)cc3)C[C@@]21C (stereo partly drawn) [EC332, 17α-(1,1-difluoro-2-propyn-1-yl)-17β-hydroxy-11β-[4-p-(acetyl)phenyl]estra-4,9-dien-3-one] | 110 nM | 90 nM | 40 nM |  |  |  | IC50 (A549 (Lung cancer); Homo sapiens): 75 nM; IC50 [1]: 200 nM; IC50 [2]: 45 nM; IC50 [3]: 300 nM; IC50 (LNCaP (AR+ Prostate)): 96 nM; IC50 [4]: 10 nM; IC50's in cytotoxicity assays [5]: low nanomolar; inhibition in the number of colonies formed (T47D breast cancer cells; 100 nM concentration, in words): complete inhibition; inhibition at 0.005 µM (T47D breast cancer cells; Homo sapiens, T47D, 5 nM concentration, read-out: inhibition in the number of colonies formed): 50%; tube formation [6]: complete abrogation; actin / alpha-smooth muscle mediated cytoskeletal disruption of fibroblast [7]: cytoskeletal disruption; P53 levels / MDM2 [8]: restore P53 levels by inhibiting MDM2; apoptosis, p53, MDM2, LIF mediated STAT3 phosphorylation (immunohistochemistry) [9]: induce apoptosis and restore p53 by inhibiting MDM2 and LIF mediated STAT3 phosphorylation
C#CC(F)(F)[C@]1(O)CCC2C3CCC4=CC(=O)CCC4=C3C(c3ccc(-n4ccnc4)cc3)C[C@@]21C (some centres unmarked) [EC351] |  |  | 500 nM |  |  |  | melting point: 175 to 178 °C
C#CC(F)(F)[C@]1(O)CCC2C3CCC4=CC(=O)CCC4=C3C(c3ccc(N(C)C)cc3)C[C@@]21C (stereo partly drawn) [EC352, 17α-(1,1-difluoro-2-propyn-1-yl)-17β-hydroxy-11β-[4-p-(dimethylamino)phenyl]estra-4,9-dien-3-one] |  |  |  |  |  |  | IC50 (U87-MU (Glioma cells)): 50 nM; IC50 (U251 (Glioma)): 40 nM; IC50 (A549 (Lung cancer)): 45 nM; IC50 ([10]; cytotoxicity): > 10000 nM; Fold Change ([11]; MCF-7 vs. MCF-7 LIF cytotoxicity (specificity towards LIF)): 0; IC50 ([11]; cytotoxicity, LIF-overexpressing MCF-7, read-out: MCF-7 LIF IC50): > 10000 nM
C#CC(F)(F)[C@]1(O)CCC2C3CCC4=CC(=O)CCC4=C3C(c3ccc(OC)cc3)C[C@@]21C (stereo partly drawn) [EC356, 17α-(1,1-difluoro-2-propyn-1-yl)-17β-hydroxy-11β-[4-p-(methoxy)phenyl]estra-4,9-dien-3-one] |  | 45 nM | 45 nM | 500 nM | 250 nM |  | IC50 (A549 (Lung cancer); Homo sapiens): 40 nM
C#CC(F)(F)[C@]1(O)CCC2C3CCC4=CC(=O)CCC4=C3C(c3ccc(C(C)(C)C)cc3)C[C@@]21C (stereo partly drawn) [EC357, 17α-(1,1-difluoro-2-propyn-1-yl)-17β-hydroxy-11β-[4-p-(t-butyl)phenyl]estra-4,9-dien-3-one] |  | 35 nM | 30 nM |  |  |  | IC50 (A549 (Lung cancer); Homo sapiens): 35 nM; melting point: 127 to 129 °C
C#CC(F)(F)[C@]1(O)CCC2C3CCC4=CC(=O)CCC4=C3C(c3ccc(C(=C)C)cc3)C[C@@]21C (stereo partly drawn) [EC358, 17α-(1,1-difluoro-2-propyn-1-yl)-17β-hydroxy-11β-[4-p-(1-methylethenyl)phenyl]estra-4,9-dien-3-one] | 40 nM | 25 nM |  | 100 nM | 50 nM | 35 nM | 
C#CC(F)(F)[C@]1(O)CC[C@H]2[C@@H]3CCC4=CC(=O)CCC4=C3[C@@H](c3ccc(-c4c(C)cc(C)cc4C)cc3)C[C@@]21C [EC359, 17α-(1,1-difluoro-2-propyn-1-yl)-17β-hydroxy-11β-[4-p-(2,4,6-trimethylphenyl)phenyl]estra-4,9-dien-3-one] | 30 nM | 10 nM |  | 240 nM |  | 25 nM | IC50 ([11]; Homo sapiens, MCF7, read-out: MCF-7 LIF IC50): 30 nM
C#CC(F)(F)[C@]1(O)CCC2C3CCC4=CC(=O)CCC4=C3C(c3ccc(C4CCCCC4)cc3)C[C@@]21C (stereo partly drawn) [EC360, 17α-(1,1-difluoro-2-propyn-1-yl)-17β-hydroxy-11β-[4-p-(cyclohexyl)phenyl]estra-4,9-dien-3-one] | 40 nM | 73 nM |  | 500 nM | 250 nM | 22 nM | 
C#CC(F)(F)[C@]1(O)CCC2C3CCC4=CC(=O)CCC4=C3C(c3ccc(S(=O)(=O)C4CC4)cc3)C[C@@]21C (stereo partly drawn) [EC361, 17α-(1,1-difluoro-2-propyn-1-yl)-17β-hydroxy-11β-[4-p-(cyclopropylsulfonyl)phenyl]estra-4,9-dien-3-one] | 750 nM | 230 nM |  | > 10000 nM | 500 nM | 350 nM | 
C#CC(F)(F)[C@]1(O)CCC2C3CCC4=CC(=O)CCC4=C3C(c3ccc(CCCCCCC)cc3)C[C@@]21C (stereo partly drawn) [EC362, 17α-(1,1-difluoro-2-propyn-1-yl)-17β-hydroxy-11β-[4-p-(n-heptyl)phenyl]estra-4,9-dien-3-one] |  |  |  | 50 nM | 25 nM | 7.5 nM | IC50 [1]: 25 nM
C#CC(F)(F)[C@]1(O)CCC2C3CCC4=CC(=O)CCC4=C3C(c3ccc(SC)cc3)C[C@@]21C (stereo partly drawn) [EC363, 17α-(1,1-difluoro-2-propyn-1-yl)-17β-hydroxy-11β-[4-p-(methylthio)phenyl]estra-4,9-dien-3-one] |  | 30 nM |  |  |  | 30 nM | 
